Results: patent publication US20240277798A1, “CYCLOSPORINE COMPOSITIONS AND METHODS OF USE” (Bacainn Biotherapeutics, Ltd., priority 2021, published 2024)

Tested on: human neutrophils
Assay: PMN transmigration assay (Salmonella typhimurium-infected T84 monolayer, HXA3/MRP2-driven neutrophil migration, MPO readout)
Assay type: cell-based
Settings: dose of 100 nM, result in words
Description: PMN transmigration assay. T84 colorectal cancer cells were grown to confluence on the bottom side of 12 well polycarbonate membrane inserts of a 24 well Transwell® plate. The confluent growth of these epithelial cells results in physiologically-relevant apical (luminal) and basolateral surfaces in the transwells. […] The monolayer was then infected on the apical surface with Salmonella typhimurium for 2 hours to induce hepoxilin A3 (HXA3) efflux through the MRP2 membrane protein and into the apical chamber. […] Freshly isolated and prepared human neutrophils were then added to the basolateral side and allowed to transmigrate through the monolayer for 2 hours. The number of neutrophils migrated to the apical chamber (due to the HXA3 gradient) was then assayed by determination of myeloperoxidase activity (a neutrophil biomarker). Inhibition of transmigration is indicated by lower MPO activity in the apical chamber.

| Structure (SMILES) | inhibition of neutrophil migration |
| --- | --- |
| CC[C@@H]1NC(=O)[C@H]([C@H](O)[C@H](C)CCCCC(=O)O)N(C)C(=O)[C@H](C(C)C)N(C)C(=O)[C@H](CC(C)C)N(C)C(=O)[C@H](CC(C)C)N(C)C(=O)[C@@H](C)NC(=O)[C@H](C)NC(=O)[C@H](CC(C)C)N(C)C(=O)[C@H](C(C)C)NC(=O)[C@H](CC(C)C)N(C)C(=O)CN(C)C1=O [BT122] | exhibit inhibition |
| CC[C@@H]1NC(=O)[C@H]([C@H](O)[C@H](C)CCCCCCC(=O)O)N(C)C(=O)[C@H](C(C)C)N(C)C(=O)[C@H](CC(C)C)N(C)C(=O)[C@H](CC(C)C)N(C)C(=O)[C@@H](C)NC(=O)[C@H](C)NC(=O)[C@H](CC(C)C)N(C)C(=O)[C@H](C(C)C)NC(=O)[C@H](CC(C)C)N(C)C(=O)CN(C)C1=O [BT125] | exhibit inhibition |
